Measurements from US20230312556A1, “ARYLAMIDE COMPOUND, PHARMACEUTICAL COMPOSITION COMPRISING SAME, AND PREPARATION METHOD THEREFOR AND USE THEREOF” (SICHUAN KELUN-BIOTECH BIOPHARMACEUTICAL CO., LTD., priority 2020, published 2023).

Target: mutant BRAF enzyme (BRAF-V600E) (Homo sapiens (Human), UniProt P15056, V600E)
Test: RAF inhibition assay (TB-PMAP2K1 kit), BRAF-V600E
Assay type: biochemical
Conditions: FLUORESCEIN-MAP2K1 substrate, 60 min reaction

Sequence of mutant BRAF enzyme (BRAF-V600E) (P15056 whole entry V600E): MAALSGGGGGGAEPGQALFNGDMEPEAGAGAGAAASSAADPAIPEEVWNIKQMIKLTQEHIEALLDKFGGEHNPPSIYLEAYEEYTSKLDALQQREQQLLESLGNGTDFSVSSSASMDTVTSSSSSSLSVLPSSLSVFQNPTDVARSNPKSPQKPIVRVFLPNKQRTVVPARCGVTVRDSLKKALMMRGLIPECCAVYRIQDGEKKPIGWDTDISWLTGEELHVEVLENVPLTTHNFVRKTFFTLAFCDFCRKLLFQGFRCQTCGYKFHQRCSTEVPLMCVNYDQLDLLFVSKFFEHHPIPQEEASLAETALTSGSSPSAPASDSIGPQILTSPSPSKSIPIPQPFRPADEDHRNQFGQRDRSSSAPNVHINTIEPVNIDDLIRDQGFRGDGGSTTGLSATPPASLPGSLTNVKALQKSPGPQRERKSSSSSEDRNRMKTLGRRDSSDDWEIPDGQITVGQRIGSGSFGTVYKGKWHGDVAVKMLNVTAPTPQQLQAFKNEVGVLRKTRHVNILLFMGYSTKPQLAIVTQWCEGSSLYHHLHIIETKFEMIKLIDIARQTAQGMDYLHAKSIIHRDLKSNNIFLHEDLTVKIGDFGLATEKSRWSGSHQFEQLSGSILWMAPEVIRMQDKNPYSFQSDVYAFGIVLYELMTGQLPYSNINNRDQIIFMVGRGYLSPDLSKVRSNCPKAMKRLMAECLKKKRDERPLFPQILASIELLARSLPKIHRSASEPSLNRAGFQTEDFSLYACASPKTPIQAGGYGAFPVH

| Compound | IC50 |
| --- | --- |
| Cc1ccc2c(Nc3cccc(Cl)c3F)nccc2c1NC(=O)c1cccc2c(N)nccc12 [Comparative Example 1, 1-amino-N-(1-((3-chloro-2-fluorophenyl)amino)-6-methylisoquinolin-5-yl)isoquinoline-5-carboxamide, reference compound] | > 1000 nM |
| Cc1ccc2c(Nc3cccc(C(F)(F)F)c3)nccc2c1NC(=O)c1cccc2c(N)nccc12 [Comparative Example 2, 1-amino-N-(6-methyl-1-((3-(trifluoromethyl)phenyl)amino)isoquinolin-5-yl)isoquinoline-5-carboxamide, reference compound] | > 1000 nM |
| Cc1ccc2c(Cc3ccccc3F)nccc2c1NC(=O)c1csc2c(N)ncnc12 [Compound 2, 4-amino-N-(1-(2-fluorobenzyl)-6-methylisoquinolin-5-yl)thieno[3,2-d]pyrimidine-7-carboxamide] | 35.6 ± 2.4 nM |
| COc1ccc(Cc2nccc3c(NC(=O)c4csc5c(N)ncnc45)c(C)ccc23)cc1 [Compound 5, 4-amino-N-(1-(4-methoxybenzyl)-6-methylisoquinolin-5-yl)thieno[3,2-d]pyrimidine-7-carboxamide] | 8.9 ± 1.03 nM |
| COc1ccc(C(O)c2nccc3c(NC(=O)c4csc5c(N)ncnc45)c(C)ccc23)cc1 (centres unmarked) [Compound 6, 4-amino-N-(1-(hydroxy(4-methoxyphenyl)methyl)-6-methylisoquinolin-5-yl)thieno[3,2-d]pyrimidine-7-carboxamide] | 25.2 ± 4.08 nM |
| Cc1ccc2c(Cc3cccc(Cl)c3F)nccc2c1NC(=O)c1csc2c(N)ncnc12 [Compound 8, 4-amino-N-(1-(3-chloro-2-fluorobenzyl)-6-methylisoquinolin-5-yl)thieno[3,2-d]pyrimidine-7-carboxamide] | 8.63 ± 0.99 nM |
| Cc1ccc2c(Cc3ccccc3Cl)nccc2c1NC(=O)c1csc2c(N)ncnc12 [Compound 10, 4-amino-N-(1-(2-chlorobenzyl)-6-methylisoquinolin-5-yl)thieno[3,2-d]pyrimidine-7-carboxamide] | 4.73 ± 1.82 nM |
| Cc1ccc2c(C(=O)c3ccccc3Cl)nccc2c1NC(=O)c1csc2c(N)ncnc12 [Compound 11, 4-amino-N-(1-(2-chlorobenzoyl)-6-methylisoquinolin-5-yl)thieno[3,2-d]pyrimidine-7-carboxamide] | 33.1 ± 7.2 nM |
| Cc1ccc2c(Nc3cccc(Cl)c3)nccc2c1NC(=O)c1cnc2c(N)ncnn12 [Compound 12, 4-amino-N-(1-((3-chlorophenyl)amino)-6-methylisoquinolin-5-yl)imidazo[2,1-f][1,2,4]triazine-7-carboxamide] | 1.5 ± 0.2 nM |
| Cc1ccc2c(Cc3ccc(F)cc3)nccc2c1NC(=O)c1csc2c(N)ncnc12 [Compound 13, 4-amino-N-(1-(4-fluorobenzyl)-6-methylisoquinolin-5-yl)thieno[3,2-d]pyrimidine-7-carboxamide] | 32.8 ± 0.6 nM |
| Cc1ccc2c(C(O)c3ccccc3Cl)nccc2c1NC(=O)c1csc2c(N)ncnc12 (centres unmarked) [Compound 14, 4-amino-N-(1-((2-chlorophenyl)(hydroxy)methyl)-6-methylisoquinolin-5-yl)thieno[3,2-d]pyrimidine-7-carboxamide] | 6.3 ± 0.7 nM |
| Cc1ccc2c(C(O)c3ccc(F)cc3)nccc2c1NC(=O)c1csc2c(N)ncnc12 (centres unmarked) [Compound 15, 4-amino-N-(1-((4-fluorophenyl)(hydroxy)methyl)-6-methylisoquinolin-5-yl)thieno[3,2-d]pyrimidine-7-carboxamide] | 11.1 ± 1.5 nM |
| Cc1ccc2c(Cc3cccc(Cl)c3)nccc2c1NC(=O)c1csc2c(N)ncnc12 [Compound 16, 4-amino-N-(1-(3-chlorobenzyl)-6-methylisoquinolin-5-yl)thieno[3,2-d]pyrimidine-7-carboxamide] | 6.27 ± 1.15 nM |
| Cc1ccc2c(C(O)c3cccc(Cl)c3)nccc2c1NC(=O)c1csc2c(N)ncnc12 (centres unmarked) [Compound 17, 4-amino-N-(1-((3-chlorophenyl)(hydroxy)methyl)-6-methylisoquinolin-5-yl)thieno[3,2-d]pyrimidine-7-carboxamide] | 5.73 ± 1.05 nM |
| Cc1ccc2c(Cc3ccc(Cl)cc3)nccc2c1NC(=O)c1csc2c(N)ncnc12 [Compound 18, 4-amino-N-(1-(4-chlorobenzyl)-6-methylisoquinolin-5-yl)thieno[3,2-d]pyrimidine-7-carboxamide] | 8.33 ± 1.25 nM |
| Cc1ccc2c(C(O)c3ccc(Cl)cc3)nccc2c1NC(=O)c1csc2c(N)ncnc12 (centres unmarked) [Compound 20, 4-amino-N-(1-((4-chlorophenyl)(hydroxy)methyl)-6-methylisoquinolin-5-yl)thieno[3,2-d]pyrimidine-7-carboxamide] | 10.7 ± 1.93 nM |
| Cc1ccc2c(C(=O)c3ccc(Cl)cc3)nccc2c1NC(=O)c1csc2c(N)ncnc12 [Compound 21, 4-amino-N-(1-(4-chlorobenzoyl)-6-methylisoquinolin-5-yl)thieno[3,2-d]pyrimidine-7-carboxamide] | 5.99 ± 1.82 nM |
| Cc1ccc2c(C(O)c3ccccc3Cl)nccc2c1NC(=O)c1cccc2c(N)ncnc12 (centres unmarked) [Compound 24, 4-amino-N-(1-((2-chlorophenyl)(hydroxy)methyl)-6-methylisoquinolin-5-yl)quinazoline-8-carboxamide] | 7.1 ± 0.7 nM |
| Cc1ccc2c(Cc3ccccc3Cl)nccc2c1NC(=O)c1cccc2c(N)ncnc12 [Compound 25, 4-amino-N-(1-(2-chlorobenzyl)-6-methylisoquinolin-5-yl)quinazoline-8-carboxamide] | 6.31 ± 0.99 nM |
| Cc1ccc2c(Cc3ccc(Cl)cc3F)nccc2c1NC(=O)c1csc2c(N)ncnc12 [Compound 26, 4-amino-N-(1-(4-chloro-2-fluorobenzyl)-6-methylisoquinolin-5-yl)thieno[3,2-d]pyrimidine-7-carboxamide] | 9 ± 0.77 nM |
| Cc1ccc2c(C(=O)c3ccc(Cl)cc3F)nccc2c1NC(=O)c1csc2c(N)ncnc12 [Compound 27, 4-amino-N-(1-(4-chloro-2-fluorobenzoyl)-6-methylisoquinolin-5-yl)thieno[3,2-d]pyrimidine-7-carboxamide] | 6.48 ± 0.93 nM |
| Cc1ccc2c(Nc3cccc(Cl)c3F)nccc2c1NC(=O)c1cnc2c(N)ncnn12 [Compound 30, 4-amino-N-(1-((3-chloro-2-fluorophenyl)amino)-6-methylisoquinolin-5-yl)imidazo[2,1-f][1,2,4]triazine-7-carboxamide] | 4.1 ± 0.2 nM |
| Cc1ccc2c(C(O)c3ccc(C(F)(F)F)cc3)nccc2c1NC(=O)c1csc2c(N)ncnc12 (centres unmarked) [Compound 33, 4-amino-N-(1-(hydroxy(4-(trifluoromethyl)phenyl)methyl)-6-methylisoquinolin-5-yl)thieno[3,2-d]pyrimidine-7-carboxamide] | 33.5 ± 6.13 nM |
| Cc1ccc2c(Cc3ccc(C(F)(F)F)cc3)nccc2c1NC(=O)c1csc2c(N)ncnc12 [Compound 34, 4-amino-N-(6-methyl-1-(4-(trifluoromethyl)benzyl)isoquinolin-5-yl)thieno[3,2-d]pyrimidine-7-carboxamide] | 26.9 ± 2.58 nM |
| Cc1ccc2c(Cc3ccc(N(C)C)nc3)nccc2c1NC(=O)c1csc2c(N)ncnc12 [Compound 36, 4-amino-N-(1-((6-(dimethylamino)pyridin-3-yl)methyl)-6-methylisoquinolin-5-yl)thieno[3,2-d]pyrimidine-7-carboxamide] | 22.5 ± 4.41 nM |
| Cc1ccc2c(C(O)c3ccc(N(C)C)nc3)nccc2c1NC(=O)c1csc2c(N)ncnc12 (centres unmarked) [Compound 37, 4-amino-N-(1-((6-(dimethylamino)pyridin-3-yl)(hydroxy)methyl)-6-methylisoquinolin-5-yl)thieno[3,2-d]pyrimidine-7-carboxamide] | 20.4 ± 3.03 nM |
